Structures can show the parent of a compound that is named as a salt. Where two headings read alike, the source gives them in different places.
Tests used:
[1] = Pharmacokinetic profile of Solifenacin salts in fasted male Wistar rats; format: in vivo; conditions: for absorption / rate of absorption: compared to the succinate salt
[2] = Stability study on storage (40° C. ± 2° C./75% ± 5% RH); format: physicochemical
Protocol: The complete x-ray powder spectrum, was recorded with a Rigaku D/Max 2200 VPC X-ray powder diffractometer model using copper radiation. The X-ray diffraction pattern was recorded by keeping the instrument parameters as below: • X-ray: Cu/40 kv/30 mA, Diverging slit: 1°, Scattering slit: 1°, Receiving slit: 0.15 mm, Monochromator RS: 0.8 mm, Counter: Scintillation counter,
Solifenacin base and its salts were analyzed for purity by analytical HPLC at λ^max 220 nm using column J'sphere-ODS, 150 mm×4.6 mm×4μ or its equivalent on AGILENT 1100 series under the following conditions, • Detector: UV absorption photometer Wave length: 220 nm Column temp.: 30° C. • Flow rate: 1.0 mL/min. Injection Vol.: 5 μL • Mobile Phase (gradient elution): 0.05 TFA buffer in water:Acetonitrile
Several of the Solifenacin salts prepared according to the present invention has chemical and polymorphic stability on storage.

[3] = Intrinsic dissolution rate of various salts of Solifenacin; format: physicochemical
[4] = Table 3a, fasted male Wistar rats, dose 30 mg/kg, mean
[5] = Table 3b, fasted male Wistar rats, dose 30 mg/kg, mean
[6] = After 3 Month at 40° C. ± 2° C./75% ± 5% RH
[7] = fasted male Wistar rats, ratio to succinate
[8] = Table 3b, fasted male Wistar rats, dose 30 mg/kg, mean, hydrochloride salt
[9] = Table 3b, fasted male Wistar rats, dose 30 mg/kg, mean, succinate salt

In the case of O=C(O)c1cc(O)ccc1O.O=C(O[C@H]1CN2CCC1CC2)N1CCc2ccccc2[C@@H]1c1ccccc1 [Solifenacin Gentisate, (+)-(1S,3′R)-quinuclidin-3′-yl 1-phenyl-1,2,3,4-tetrahydro-isoquinoline-2-carboxylate gentisate salt], the “AUC (0-inf)” value [1, 4] is reported as 74.19 ng·h/mL, the “AUC (0-t)” value [1, 4] is reported as 58.97 ng·h/mL and the Cmax [1, 4] is reported as 30.66 ng/mL. For the same compound, the Tmax [1, 4] was 1.70 h, the “AUC (0-inf)” value [1, 5] was 74.19 ng·h/mL and the “AUC (0-t)” value [1, 5] was 58.97 ng·h/mL. For the same compound, the Cmax [1, 5] was 30.66 ng/mL, the Tmax [1, 5] was 1.70 h and the “peak plasma concentrations compared with Solifenacin succinate” value ([1]; in words) was “comparable”. The Description [2, 6] was “Off white colored”, the “Polymorphism XRD” value [2, 6] was “No Change” and the “Purity (By HPLC)” value [2, 6] was 99.46%. The “Water (by KFR)” value [2, 6] was 0.29%, the Description ([2]; Initial) was “Off white colored powder” and the “Polymorphism XRD” value ([2]; Initial) was “Crystalline pattern”. The “Purity (By HPLC)” value ([2]; Initial) was 99.63%, the “Water (by KFR)” value ([2]; Initial) was 0.16% and the Intrinsic dissolution rate ([3]; pH 1.2 HCl) was 6.845 mg/min · cm^2. The Intrinsic dissolution rate ([3]; pH 4.5 Acetate Buffer) was 0.2356 mg/min · cm^2 and the Intrinsic dissolution rate ([3]; pH 6.8 Phosphate Buffer) was 0.4932 mg/min · cm^2.

Compound O=C(O[C@H]1CN2CCC1CC2)N1CCc2ccccc2[C@@H]1c1ccccc1 [Solifenacin Hydrobromide, Solifenacin hydrobromide] has a Tmax ([1]; Table 3b, fasted male Wistar rats, dose 30 mg/kg, mean, hydrobromide) of 1.27 h, an AUC (0-inf) ([1]; male, Wistar, rat, plasma, 30 mg/kg, Table 3b, fasted male Wistar rats, dose 30 mg/kg, mean, read-out: AUC (0-inf)) of 74 ng·h/mL and an AUC (0-t) ([1]; male, Wistar, rat, plasma, 30 mg/kg, Table 3b, fasted male Wistar rats, dose 30 mg/kg, mean, read-out: AUC (0-t)) of 59.9 ng·h/mL. It also gave a Cmax ([1]; male, Wistar, rat, plasma, 30 mg/kg, Table 3b, fasted male Wistar rats, dose 30 mg/kg, mean, read-out: Cmax) of 14.1 ng/mL.

With “(+)-(1S,3′R)-quinuclidin-3′-yl 1-phenyl-1,2,3,4-tetrahydro-isoquinoline-2-carboxylate oxalate salt [Solifenacin Oxalate]” the “AUC (0-inf)” value [1, 4] was 345.79 ng·h/mL, the “AUC (0-t)” value [1, 4] was 321.28 ng·h/mL and the Cmax [1, 4] was 252.38 ng/mL. For the same compound, the Kel [1, 4] was 0.26 h⁻¹, the T1/2 [1, 4] was 4.76 h and the Tmax [1, 4] was 0.37 h. For the same compound, the “AUC (0-inf)” value [1, 5] was 78.78 ng·h/mL, the “AUC (0-t)” value [1, 5] was 49.77 ng·h/mL and the Cmax [1, 5] was 9.10 ng/mL. The Kel [1, 5] was 0.18 h⁻¹, the T1/2 [1, 5] was 6.19 h and the Tmax [1, 5] was 1.62 h. For the same compound, the “higher plasma concentration (Bio available, Cmax) compared to Solifenacin succinate salt” value [1, 7] was ~10 fold, the “higher plasma exposure compared to Solifenacin succinate salt” value [1, 7] was 5 times and the “T1/2 value compared to the succinate salt” value ([1]; in words) was “higher”. For the same compound, the “absorption / rate of absorption” value ([1]; in words) was “rapid absorption”, the Description [2, 6] was “Off white colored” and the “Polymorphism XRD” value [2, 6] was “No Change”. The “Purity (By HPLC)” value [2, 6] was 99.36%, the “Water (by KFR)” value [2, 6] was 0.33% and the Description ([2]; Initial) was “Off white colored powder”. The “Polymorphism XRD” value ([2]; Initial) was “Crystalline pattern”, the “Purity (By HPLC)” value ([2]; Initial) was 99.49% and the “Water (by KFR)” value ([2]; Initial) was 0.18%. The Intrinsic dissolution rate ([3]; pH 1.2 HCl) was 6.5822 mg/min · cm^2, the Intrinsic dissolution rate ([3]; pH 4.5 Acetate Buffer) was 6.5084 mg/min · cm^2 and the Intrinsic dissolution rate ([3]; pH 6.8 Phosphate Buffer) was 4.9096 mg/min · cm^2.

In the case of O=C(O[C@H]1CN2CCC1CC2)N1CCc2ccccc2[C@@H]1c1ccccc1 [Solifenacin Hydrochloride, (+)-(1S,3′R)-quinuclidin-3′-yl 1-phenyl-1,2,3,4-tetrahydro-isoquinoline-2-carboxylate hydrochloride salt], the “AUC (0-inf)” value [1, 8] is reported as 59.52 ng·h/mL, the “AUC (0-t)” value [1, 8] is reported as 50.54 ng·h/mL and the Cmax [1, 8] is reported as 13.67 ng/mL. For the same compound, the Tmax [1, 8] was 1.05 h, the AUC (0-inf) ([1]; male, Wistar, rat, plasma, 30 mg/kg, Table 3a, fasted male Wistar rats, dose 30 mg/kg, mean, read-out: AUC (0-inf)) was 158 ng·h/mL and the AUC (0-t) ([1]; male, Wistar, rat, plasma, 30 mg/kg, Table 3a, fasted male Wistar rats, dose 30 mg/kg, mean, read-out: AUC (0-t)) was 147 ng·h/mL. The Cmax ([1]; male, Wistar, rat, plasma, 30 mg/kg, Table 3a, fasted male Wistar rats, dose 30 mg/kg, mean, read-out: Cmax) was 94.4 ng/mL, the Tmax ([1]; male, Wistar, rat, plasma, 30 mg/kg, Table 3a, fasted male Wistar rats, dose 30 mg/kg, mean, read-out: Tmax) was 0.6 h and the Vd ([1]; rat, plasma, Table 3a, fasted male Wistar rats, dose 30 mg/kg, mean, read-out: Vz) was 1530 L. For the same compound, the Description [2, 6] was “Off white colored”, the “Polymorphism XRD” value [2, 6] was “No Change” and the “Purity (By HPLC)” value [2, 6] was 99.6%. For the same compound, the “Water (by KFR)” value [2, 6] was 0.32%, the Description ([2]; Initial) was “Off white colored powder” and the “Polymorphism XRD” value ([2]; Initial) was “Crystalline pattern”. For the same compound, the “Purity (By HPLC)” value ([2]; Initial) was 99.54%, the “Water (by KFR)” value ([2]; Initial) was 0.14% and the Intrinsic dissolution rate ([3]; pH 1.2 HCl, listed as HCl, hydrochloride salt) was 6.6836 mg/min · cm^2. The Intrinsic dissolution rate ([3]; pH 4.5 Acetate Buffer, listed as HCl, hydrochloride salt) was 21.08 mg/min · cm^2 and the Intrinsic dissolution rate ([3]; pH 6.8 Phosphate Buffer, listed as HCl, hydrochloride salt) was 20.262 mg/min · cm^2.

In the case of “(+)-(1S,3′R)-quinuclidin-3′-yl 1-phenyl-1,2,3,4-tetrahydro-isoquinoline-2-carboxylate besylate salt [Solifenacin Besylate]”, the “AUC (0-inf)” value [1, 5] is reported as 49.27 ng·h/mL, the “AUC (0-t)” value [1, 5] is reported as 45.54 ng·h/mL and the Cmax [1, 5] is reported as 12.84 ng/mL. It also gave a Kel [1, 5] of 0.36 h⁻¹, a T1/2 [1, 5] of 1.95 h and a Tmax [1, 5] of 1.73 h.

In the case of Solifenacin phosphate, the “AUC (0-inf)” value [1, 5] is reported as 57.63 ng·h/mL, the “AUC (0-t)” value [1, 5] is reported as 50.58 ng·h/mL and the Cmax [1, 5] is reported as 12.63 ng/mL. It also gave a Kel [1, 5] of 0.29 h⁻¹, a T1/2 [1, 5] of 2.43 h and a Tmax [1, 5] of 1.00 h.

With O=C(O[C@H]1CN2CCC1CC2)N1CCc2ccccc2[C@@H]1c1ccccc1 [Solifenacin Succinate, (+)-(1S,3′R)-quinuclidin-3′-yl 1-phenyl-1,2,3,4-tetrahydro-isoquinoline-2-carboxylate succinate salt, reference compound] the “AUC (0-inf)” value [1, 9] was 76.69 ng·h/mL, the “AUC (0-t)” value [1, 9] was 60.09 ng·h/mL and the Cmax [1, 9] was 23.72 ng/mL. For the same compound, the Tmax [1, 9] was 2.67 h, the “Tmax (absorption, as stated in text)” value ([1]; text summary of Table 3b, fasted male Wistar rats, succinate salt) was 6.67 h and the Intrinsic dissolution rate ([3]; pH 1.2 HCl, succinate salt) was 10.666 mg/min · cm^2. For the same compound, the Intrinsic dissolution rate ([3]; pH 4.5 Acetate Buffer, succinate salt) was 9.845 mg/min · cm^2 and the Intrinsic dissolution rate ([3]; pH 6.8 Phosphate Buffer, succinate salt) was 11.002 mg/min · cm^2.

In the case of O=C(O[C@H]1CN2CCC1CC2)N1CCc2ccccc2[C@@H]1c1ccccc1.O=C1O[C@H]([C@@H](O)CO)C(O)=C1O [Solifenacin Ascorbate], the “AUC (0-inf)” value [1, 5] is reported as 96.99 ng·h/mL, the “AUC (0-t)” value [1, 5] is reported as 85.66 ng·h/mL and the Cmax [1, 5] is reported as 29.04 ng/mL. For the same compound, the Tmax [1, 5] was 1.30 h, the “absorption / rate of absorption” value ([1]; in words) was “faster” and the “better absorption than the succinate salt” value ([1]; relative to succinate) was 20%.

— US20100298371A1, “PROCESS FOR PREPARING CHEMICALLY AND CHIRALLY PURE SOLIFENACIN BASE AND ITS SALTS” (priority 2007, published 2010)
